Among the data in ChEMBL document CHEMBL1152043, “Interphenylene phenyl oxazoles: novel, potent thromboxane receptor antagonists” (Bioorg Med Chem Lett, 1992) are IC50 and Kd values, retold here.

The species entered for assay [1] is Homo sapiens. Kind of assay: Tested for inhibition of platelet aggregation induced by U-46,619 (U-IPA) in human platelet rich plasma. The assay is classed as functional. The conditions noted are these: read-out: I50.
The species named for assay [2] is Homo sapiens. Kind of assay: Tested for inhibition of platelet aggregation induced by arachidonic acid (AAIPA) in human platelet rich plasma. The assay is classed as functional. The conditions noted are these: read-out: I50.
Assay [3] deals with T1, Thromboxane A2 receptor (Homo sapiens, UniProt P21731).
T1 sequence (P21731 whole entry): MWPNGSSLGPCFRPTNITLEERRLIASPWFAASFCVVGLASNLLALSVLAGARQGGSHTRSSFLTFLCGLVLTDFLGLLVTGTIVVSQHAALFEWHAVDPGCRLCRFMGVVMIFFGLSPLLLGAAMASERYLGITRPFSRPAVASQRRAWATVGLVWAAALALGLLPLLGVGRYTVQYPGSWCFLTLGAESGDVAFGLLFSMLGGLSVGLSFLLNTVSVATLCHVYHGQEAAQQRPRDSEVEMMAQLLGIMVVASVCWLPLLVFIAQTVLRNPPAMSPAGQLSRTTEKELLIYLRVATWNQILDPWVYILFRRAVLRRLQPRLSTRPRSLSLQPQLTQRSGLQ
Kind of assay: Dissociation constant was determined from radioligand binding studies in human platelet membranes using Thromboxane A2 receptor radioligand [3H]-SQ 29,548. The assay is classed as cell membranes.

Turning to `O=C(O)CCc1ccccc1Cc1ccccc1-c1nc(C(=O)NCCCCC2CCCCC2)co1`, the IC50 in assay [1] is 0.11 µM; in assay [2], 0.031 µM. For the same compound, binding in assay [3] was characterised by a dissociation constant (Kd) of 0.019 µM.

In the case of `O=C(O)Cc1ccccc1Cc1ccccc1-c1nc(C(=O)NCCCCC2CCCCC2)co1`, the IC50 worked out at 330 µM in assay [1] and 67 µM in assay [2].

As to `O=C(O)CCCc1ccccc1Cc1ccccc1-c1nc(C(=O)NCCCCC2CCCCC2)co1`, the IC50 in assay [1] amounted to 0.63 µM; in assay [2], 0.058 µM.

On to `O=C(O)Cc1cccc(Cc2ccccc2-c2nc(C(=O)NCCCCC3CCCCC3)co2)c1`, for which the IC50 in assay [1] was 6 µM; in assay [2] it was 2 µM.

`O=C(O)CCc1cccc(Cc2ccccc2-c2nc(C(=O)NCCCCC3CCCCC3)co2)c1`: the figures for the IC50 in assay [1] and in assay [2] were 2 µM and 0.47 µM, respectively.

What is called Kd is the equilibrium constant for the complex coming apart. Low values mean tighter binding, high ones weaker binding.
